The target in experiment [1] is CDK4-CYCLIN D1 (Homo sapiens, UniProt P11802). In words: CDK protein kinase inhibition by ADP-Glo assay, CDK4-CYCLIN D1. The class given is biochemical. Conditions: for IC50: ADP-Glo, 1000 μM ATP, read-out: CDK4-CYCLIND1, IC50; for CDK2 Fold selectivity, CDK4 / CDK2 Fold Sensitivity, CDK4: CDK2 versus CDK4; for CDK2 Fold Sensitivity, CDK4: Table 8. The method in brief: (§1)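 Compounds were incubated at 22° C with the CDK/cyclin complex, peptide substrate, 1000 μM ATP and 5 mM MgCl2. The reaction was then quenched and ADP formation quantified by luminescence using ADP-Glo reagents.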
Background: In ADP-Glo the light output rises with the ADP produced.

Experiment [2] has as its system Phospho-Rb (Ser807/811) in OVCAR3 cells. Briefly: Phospho-Rb expression inhibition in OVCAR3 cells quantified by In Cell Western. The experiment is classed as cell-based. Conditions: Homo sapiens, OVCAR-3, 24 hours, read-out: OVCAR-3 pRb IC50. Put shortly: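 In-cell western: after 24 h compound exposure at 37° C, fixed OVCAR3 cells co-stained for pRb Ser807/811 (800 nm channel) and total Rb (680 nm channel), imaged by LI-COR Odyssey.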

Experiment [3] deals with CDK1-CYCLIN B (Homo sapiens, UniProt P06493). Briefly: CDK protein kinase inhibition by ADP-Glo assay, CDK1-CYCLIN B. The experiment is classed as biochemical. Conditions: for IC50: ADP-Glo, 1000 μM ATP, read-out: CDK1-CYCLINB, IC50; for CDK2 Fold selectivity, CDK1 / CDK2 fold selectivity over CDK1: CDK2 versus CDK1; for CDK2 fold selectivity over CDK1: Table 8. Put shortly:
as §1

For experiment [4], the target named is CDK9-CYCLIN T1 (Homo sapiens, UniProt P50750). In words: CDK protein kinase inhibition by ADP-Glo assay, CDK9-CYCLIN T1. The class given is biochemical. Conditions: for IC50: ADP-Glo, 1000 μM ATP, read-out: CDK9-CYCLINT1, IC50; for CDK2 Fold selectivity, CDK9 / CDK2 Fold Sensitivity, CDK9: CDK2 versus CDK9; for CDK2 Fold Sensitivity, CDK9: Table 8. Put shortly: as §1

The target of experiment [5] is CDK2-CYCLIN E1 (Homo sapiens, UniProt P24941). Briefly: CDK protein kinase inhibition by ADP-Glo assay, CDK2-CYCLIN E1. The class given is biochemical. Conditions: ADP-Glo, 1000 μM ATP, read-out: CDK2-CYCLINE, IC50. The method in brief:
as §1

Experiment [6] deals with CCNE1-amplified OVCAR3 cells. Briefly: Cell growth inhibition of CCNE1-amplified OVCAR3 cells (CellTiter-Glo). Conditions: Homo sapiens, OVCAR-3, 144 h, 6 days. The class given is cell-based. Put shortly:
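Growth read-out was CellTiter-Glo luminescence, taken after 10 min at room temperature at the end of a 6-day compound exposure at 37 °C. Compounds were diluted from DMSO stocks across various concentrations.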

For experiment [7], the target named is CDK6-CYCLIN D3 (Homo sapiens, UniProt Q00534). In words: CDK protein kinase inhibition by ADP-Glo assay, CDK6-CYCLIN D3. The experiment is classed as biochemical. Conditions: for IC50: ADP-Glo, 1000 μM ATP, read-out: CDK6-CYCLIND3, IC50; for CDK2 Fold selectivity, CDK6 / CDK2 Fold Sensitivity, CDK6: CDK2 versus CDK6; for CDK2 Fold Sensitivity, CDK6: Table 8. The method in brief: as §1

The subject of experiment [8] is CCNE1-normal SKOV3 cells. In words: Cell growth inhibition of CCNE1-normal SKOV3 cells (CellTiter-Glo). The class given is cell-based. Conditions: Homo sapiens, SK-OV-3, 144 h, 6 days. Put shortly: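 Growth was measured by CellTiter-Glo luminescence after 6 days' compound exposure at 37 °C. Cells were plated one day before dosing at 1000 per well in medium with 10% FBS, and compounds were diluted from DMSO stocks.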
Background: ATP-based viability assays read luminescence as a measure of living cells.

The structures appear in SMILES notation. Like-named read-outs stand apart in the source and are kept apart here.

Chain of CDK6-CYCLIN D3 (Q00534 whole entry): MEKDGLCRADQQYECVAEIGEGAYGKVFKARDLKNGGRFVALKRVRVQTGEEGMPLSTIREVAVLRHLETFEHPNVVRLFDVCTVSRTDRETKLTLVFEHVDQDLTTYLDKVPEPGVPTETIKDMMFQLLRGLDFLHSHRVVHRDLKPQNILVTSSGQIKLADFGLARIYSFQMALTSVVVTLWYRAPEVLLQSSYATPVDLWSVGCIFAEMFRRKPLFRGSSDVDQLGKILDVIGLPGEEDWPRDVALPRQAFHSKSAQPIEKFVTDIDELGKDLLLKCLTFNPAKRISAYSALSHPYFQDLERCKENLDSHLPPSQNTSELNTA
Chain of CDK6-CYCLIN D3 (P30281 whole entry partner): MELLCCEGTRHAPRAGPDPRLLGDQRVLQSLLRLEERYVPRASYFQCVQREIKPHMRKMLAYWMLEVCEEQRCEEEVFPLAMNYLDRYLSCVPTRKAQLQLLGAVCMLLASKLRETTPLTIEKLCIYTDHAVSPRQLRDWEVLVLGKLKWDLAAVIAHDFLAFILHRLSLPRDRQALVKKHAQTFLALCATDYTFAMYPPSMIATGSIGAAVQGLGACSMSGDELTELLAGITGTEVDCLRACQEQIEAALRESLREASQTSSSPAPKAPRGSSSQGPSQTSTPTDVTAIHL
Chain of CDK1-CYCLIN B (P06493 whole entry): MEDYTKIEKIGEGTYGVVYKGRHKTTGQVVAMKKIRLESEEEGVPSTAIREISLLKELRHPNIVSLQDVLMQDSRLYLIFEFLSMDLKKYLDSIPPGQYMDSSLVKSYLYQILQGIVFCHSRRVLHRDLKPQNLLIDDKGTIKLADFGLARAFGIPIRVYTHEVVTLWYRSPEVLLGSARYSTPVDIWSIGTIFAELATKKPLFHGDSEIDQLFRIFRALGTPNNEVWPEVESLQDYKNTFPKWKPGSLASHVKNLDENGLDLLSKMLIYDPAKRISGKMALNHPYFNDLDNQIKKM
Chain of CDK1-CYCLIN B (P14635 whole entry partner): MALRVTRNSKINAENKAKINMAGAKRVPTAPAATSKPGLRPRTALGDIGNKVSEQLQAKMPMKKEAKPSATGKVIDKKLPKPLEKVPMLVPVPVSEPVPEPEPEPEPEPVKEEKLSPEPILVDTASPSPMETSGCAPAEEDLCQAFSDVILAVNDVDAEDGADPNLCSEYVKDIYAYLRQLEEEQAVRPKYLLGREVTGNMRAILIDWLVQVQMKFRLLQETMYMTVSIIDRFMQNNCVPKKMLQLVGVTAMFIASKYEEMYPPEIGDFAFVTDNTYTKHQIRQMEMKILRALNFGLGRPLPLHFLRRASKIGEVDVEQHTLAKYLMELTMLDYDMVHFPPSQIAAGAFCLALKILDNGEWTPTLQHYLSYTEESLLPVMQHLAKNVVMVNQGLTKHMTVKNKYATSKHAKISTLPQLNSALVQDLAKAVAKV
Chain of CDK9-CYCLIN T1 (P50750 whole entry): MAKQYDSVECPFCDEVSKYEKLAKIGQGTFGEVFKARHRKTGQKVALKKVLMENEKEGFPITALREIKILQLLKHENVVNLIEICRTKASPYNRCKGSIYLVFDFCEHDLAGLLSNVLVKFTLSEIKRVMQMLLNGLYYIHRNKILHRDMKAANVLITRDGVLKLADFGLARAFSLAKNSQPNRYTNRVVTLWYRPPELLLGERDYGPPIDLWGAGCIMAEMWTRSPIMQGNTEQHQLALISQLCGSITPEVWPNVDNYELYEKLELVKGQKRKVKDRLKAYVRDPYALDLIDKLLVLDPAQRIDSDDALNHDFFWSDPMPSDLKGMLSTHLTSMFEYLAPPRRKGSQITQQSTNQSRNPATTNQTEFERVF
Chain of CDK9-CYCLIN T1 (O60563 whole entry partner): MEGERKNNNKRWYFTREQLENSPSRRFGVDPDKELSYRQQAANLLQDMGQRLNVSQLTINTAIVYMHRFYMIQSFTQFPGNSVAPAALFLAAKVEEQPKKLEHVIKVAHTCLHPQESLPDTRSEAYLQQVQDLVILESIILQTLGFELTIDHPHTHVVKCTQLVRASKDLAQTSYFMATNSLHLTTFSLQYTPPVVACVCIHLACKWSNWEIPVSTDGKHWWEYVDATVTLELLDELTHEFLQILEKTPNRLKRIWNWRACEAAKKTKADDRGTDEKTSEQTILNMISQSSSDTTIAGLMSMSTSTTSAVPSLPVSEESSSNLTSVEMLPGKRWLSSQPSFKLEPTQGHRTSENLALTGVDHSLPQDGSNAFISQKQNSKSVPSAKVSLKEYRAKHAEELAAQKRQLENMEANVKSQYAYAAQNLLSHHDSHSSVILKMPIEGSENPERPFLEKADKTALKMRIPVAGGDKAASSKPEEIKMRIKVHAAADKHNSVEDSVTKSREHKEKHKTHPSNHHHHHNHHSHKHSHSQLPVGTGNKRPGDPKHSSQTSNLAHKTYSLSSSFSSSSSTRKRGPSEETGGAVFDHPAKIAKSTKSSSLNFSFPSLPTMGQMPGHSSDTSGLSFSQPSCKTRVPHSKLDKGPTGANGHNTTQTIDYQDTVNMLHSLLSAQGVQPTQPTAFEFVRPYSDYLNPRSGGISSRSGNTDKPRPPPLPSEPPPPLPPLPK
Chain of CDK4-CYCLIN D1 (P11802 whole entry): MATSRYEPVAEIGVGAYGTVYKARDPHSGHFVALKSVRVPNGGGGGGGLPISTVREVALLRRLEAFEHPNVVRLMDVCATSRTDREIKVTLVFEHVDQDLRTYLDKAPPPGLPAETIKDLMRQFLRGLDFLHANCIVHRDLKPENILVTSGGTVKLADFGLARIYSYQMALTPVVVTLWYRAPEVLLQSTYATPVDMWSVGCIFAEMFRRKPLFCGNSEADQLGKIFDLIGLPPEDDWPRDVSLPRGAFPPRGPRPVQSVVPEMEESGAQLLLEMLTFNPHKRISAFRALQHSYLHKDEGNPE
Chain of CDK4-CYCLIN D1 (P24385 whole entry partner): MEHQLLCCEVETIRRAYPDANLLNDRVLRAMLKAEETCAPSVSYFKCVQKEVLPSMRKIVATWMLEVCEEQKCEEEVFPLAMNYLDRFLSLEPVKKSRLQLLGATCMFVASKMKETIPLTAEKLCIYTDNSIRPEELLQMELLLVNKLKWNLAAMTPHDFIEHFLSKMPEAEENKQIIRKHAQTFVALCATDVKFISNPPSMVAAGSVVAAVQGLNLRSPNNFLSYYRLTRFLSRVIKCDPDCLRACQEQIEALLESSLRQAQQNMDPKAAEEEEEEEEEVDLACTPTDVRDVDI

For orientation: IC50 means the midpoint of a concentration-inhibition curve. For the molecule `C[C@@H]1CC23CC(C2)(C3)NC(=O)O[C@@H]2CC[C@@H](C2)c2cc([nH]n2)Nc2ccnc(c2)O1` [Compound 100, (1^1S,1^3R,6R,Z)-6-methyl-2^1H-5,11-dioxa-3,9-diaza-4(4,2)-pyridina-2(3,5)-pyrazola-8(1,3)-bicyclo[1.1.1]pentana-1(1,3)-cyclopentanacycloundecaphan-10-one], the IC50 in experiment [1] (Table 17) is 100 to 500 nM; in experiment [2], 2 to 10 nM; in experiment [3] (Table 17), 10 to 50 nM; in experiment [4] (Table 17) it was 10 to 50 nM; in experiment [5] (Table 17) it was at most 10 nM; in experiment [6] it was 10 to 50 nM. Further, the IC50 in experiment [7] (Table 17) fell in the range of 100 to 500 nM; in experiment [8], 50 to 250 nM. In addition, the “CDK2 Fold selectivity, CDK4” value in experiment [1] (Table 18) is “C (C, >50 and ≤100)”. Moreover, in experiment [3] (Table 18), the “CDK2 Fold selectivity, CDK1” value is recorded as “E (E, <20)”. Also, the “CDK2 Fold selectivity, CDK9” value in experiment [4] (Table 18) is “D (D, >20 and ≤50)”. In experiment [7] (Table 18), the “CDK2 Fold selectivity, CDK6” value was “C (C, >50 and ≤100)”.

Turning to `O=C1NCCCCOc2cc(cc(C(F)F)n2)Nc2cc([nH]n2)[C@H]2CC[C@H](C2)O1` [Compound 16, (1^1S,1^3R,Z)-46-(difluoromethyl)-2^1H-5,12-dioxa-3,10-diaza-4(4,2)-pyridina-2(5,3)-pyrazola-1(1,3)-cyclopentanacyclododecaphan-11-one], the IC50 in experiment [1] (Table 7) was over 500 nM; in experiment [2], 10 to 50 nM; in experiment [3] (Table 7) it was 50 to 100 nM; in experiment [4] (Table 7), over 500 nM; in experiment [5] (Table 7) it was at most 10 nM; in experiment [6] it was 10 to 50 nM. For the same molecule, the concentration for half-maximal inhibition (IC50) in experiment [7] (Table 7) was over 500 nM; in experiment [8], over 1250 nM. Further, the “CDK2 Fold Sensitivity, CDK4” value in experiment [1] was “B (B, >100 and ≤500)”. Also, the “CDK2 fold selectivity over CDK1” value in experiment [3] is given as “E (E, <20)”. The “CDK2 Fold Sensitivity, CDK9” value in experiment [4] was “B (B, >100 and ≤500)”. Also, in experiment [7], the “CDK2 Fold Sensitivity, CDK6” value was “B (B, >100 and ≤500)”.

Turning to `C[C@H]1CCCC(F)(F)c2cc(ccn2)Nc2cc(n[nH]2)[C@H]2CC[C@H](C2)OC(=O)N1` [Compound 166, (1^1S,1^3R,9S,Z)-5,5-difluoro-9-methyl-2^1H-12-oxa-3,10-diaza-4(4,2)-pyridina-2(3,5)-pyrazola-1(1,3)-cyclopentanacyclododecaphan-11-one], the IC50 in experiment [1] (Table 25) was in the range of 50 to 100 nM; in experiment [1] (Table 31), 100 to 500 nM; in experiment [2], 2 to 10 nM; in experiment [3] (Table 25), 10 to 50 nM; in experiment [3] (Table 31), 10 to 50 nM; in experiment [4] (Table 25), 10 to 50 nM. In addition, the half-inhibitory concentration (IC50) in experiment [4] (Table 31) is 10 to 50 nM; in experiment [5] (Table 25), at most 10 nM; in experiment [5] (Table 31), at most 10 nM; in experiment [6] it was 10 to 50 nM; in experiment [7] (Table 25), 10 to 50 nM; in experiment [7] (Table 31), 100 to 500 nM. Further, the half-inhibitory concentration (IC50) in experiment [8] lay within 250 to 1250 nM. Besides, the “CDK2 Fold selectivity, CDK4” value is “C (C, >50 and ≤100)” in experiment [1] (Table 26); “D (D, >20 and ≤50)” in experiment [1] (Table 32). The “CDK2 Fold selectivity, CDK1” value is “E (E, <20)” in experiment [3] (Table 26) and “E (E, <20)” in experiment [3] (Table 32). For the same molecule, the “CDK2 Fold selectivity, CDK9” value in experiment [4] (Table 26) was “D (D, >20 and ≤50)”; in experiment [4] (Table 32), “E (E, <20)”. For the same molecule, the “CDK2 Fold selectivity, CDK6” value in experiment [7] (Table 26) was “D (D, >20 and ≤50)”; in experiment [7] (Table 32), “D (D, >20 and ≤50)”.

For the molecule `O=C1NC2(CCCCc3cc(ccn3)Nc3cc(n[nH]3)[C@H]3CC[C@H](C3)O1)CC2` [Compound 116, (1′S,3′R,Z)-spiro[cyclopropane-1,9′-12-oxa-3,10-diaza-4(4,2)-pyridina-2(3,5)-pyrazola-1(1,3)-cyclopentanacyclododecaphan]-11′-one], the concentration for half-maximal inhibition (IC50) was 10 to 50 nM in experiment [1] (Table 17); 10 to 50 nM in experiment [2]; 50 to 100 nM in experiment [3] (Table 17); 50 to 100 nM in experiment [4] (Table 17); at most 10 nM in experiment [5] (Table 17); 10 to 50 nM in experiment [6]. The IC50 in experiment [7] (Table 17) fell in the range of 10 to 50 nM; in experiment [8], 250 to 1250 nM. For the same molecule, the “CDK2 Fold selectivity, CDK4” value in experiment [1] (Table 18) is “E (E, <20)”. The “CDK2 Fold selectivity, CDK1” value in experiment [3] (Table 18) is “D (D, >20 and ≤50)”. The “CDK2 Fold selectivity, CDK9” value in experiment [4] (Table 18) is “D (D, >20 and ≤50)”. In addition, the “CDK2 Fold selectivity, CDK6” value in experiment [7] (Table 18) is given as “E (E, <20)”.

Consider `CC1(C)CCCOc2cc(ccn2)Nc2cc([nH]n2)[C@H]2CC[C@H](C2)OC(=O)N1` [Compound 13, (1^1S,1^3R,Z)-9,9-dimethyl-2^1H-5,12-dioxa-3,10-diaza-4(4,2)-pyridina-2(3,5)-pyrazola-1(1,3)-cyclopentanacyclododecaphan-11-one], for which the IC50 in experiment [1] (Table 7) is 50 to 100 nM; in experiment [2], 2 to 10 nM; in experiment [3] (Table 7), 10 to 50 nM; in experiment [4] (Table 7), 50 to 100 nM; in experiment [5] (Table 7), at most 10 nM; in experiment [6], 2 to 10 nM. In addition, the IC50 in experiment [7] (Table 7) fell in the range of 50 to 100 nM; in experiment [8] it was 250 to 1250 nM. In addition, the “CDK2 Fold Sensitivity, CDK4” value in experiment [1] is “C (C, >50 and ≤100)”. For the same molecule, the “CDK2 fold selectivity over CDK1” value in experiment [3] was “E (E, <20)”. The “CDK2 Fold Sensitivity, CDK9” value in experiment [4] is “C (C, >50 and ≤100)”. The “CDK2 Fold Sensitivity, CDK6” value in experiment [7] is “D (D, >20 and ≤50)”.

For the molecule `C[C@H]1CCCOc2cc(ccn2)Nc2[nH]nc(c2F)[C@H]2CC[C@H](C2)OC(=O)N1` [Compound 183, (1^1S,1^3R,9S,E)-2^4-fluoro-9-methyl-2^1H-5,12-dioxa-3,10-diaza-4(4,2)-pyridina-2(3,5)-pyrazola-1(1,3)-cyclopentanacyclododecaphan-11-one], the 50% inhibitory concentration (IC50) in experiment [1] (Table 33) is over 500 nM; in experiment [2], 10 to 50 nM; in experiment [3] (Table 33) it was over 500 nM; in experiment [4] (Table 33), over 500 nM; in experiment [5] (Table 33), 10 to 50 nM; in experiment [6], 50 to 250 nM. Further, the figures for the IC50 in experiment [7] (Table 33) and in experiment [8] were over 500 nM and over 1250 nM, respectively. Moreover, the “CDK2 Fold selectivity against CDK4” value in experiment [1] (Table 34, fold selectivity for CDK2 over CDK4, recombinant CDK kinases) is “C (C, >50 and ≤100)”. Also, the “CDK2 Fold selectivity against CDK1” value in experiment [3] (Table 34, fold selectivity for CDK2 over CDK1, recombinant CDK kinases) is “D (D, >20 and ≤50)”. For the same molecule, the “CDK2 Fold selectivity against CDK9” value in experiment [4] (Table 34, fold selectivity for CDK2 over CDK9, recombinant CDK kinases) was “B (B, >100 and ≤500)”. In addition, the “CDK2 Fold selectivity against CDK6” value in experiment [7] (Table 34, fold selectivity for CDK2 over CDK6, recombinant CDK kinases) is “C (C, >50 and ≤100)”.

Source of the values: patent publication US20240317777A1, “NOVEL MACROCYCLIC AMINOPYRAZOLE COMPOUNDS AS CDK2 INHIBITORS” (Accutar Biotechnology Inc., priority 2023, published 2024).
